# Counter-ions that a name gives are not always drawn.
# System: Scopolamine Induced Memory Deficit
# Assay: Dark Avoidance Assay (reversal of scopolamine induced memory deficit)
# Format: in vivo
# Settings: mice, retest after 24 hours
# Protocol: Dark Avoidance Asssay In this assay mice are tested for their ability to remember an unpleasant stimulus for a period of 24 hours. A mouse is placed in a chamber that contains a dark compartment; a strong incandescent light drives it to the dark compartment, where an electric shock is administered through metal plates on the floor. The animal is removed from the testing apparatus and tested again, 24 hours later, for the ability to remember the electric shock. If scolopamine, an anticholinergic that is known to cause memory impairment, is administered before an animal's initial exposure to the test chamber, the animal re-enters the dark compartment shortly after being placed in the test chamber 24 hours later. This effect of scopolamine is blocked by an active test compound, resulting in a greater interval before re-entry into the dark compartment. The results for an active compound are expressed as the percent of a group of animals in which the effect of scopolamine is blocked, as manifested by an increased interval between being placed in the test chamber and re-entering the dark compartment.
SMILES,% of Animals With Scopolamine Induced Memory Deficit Reversed (2.5 mg/kg by body weight),% of Animals With Scopolamine Induced Memory Deficit Reversed (5.0 mg/kg by body weight),other results
CN(c1ccncc1)n1cccc1C=O [1-[N-Methyl-N-(4-pyridinyl)]aminopyrrole-2-carboxaldehyde maleate],,,% of Animals With Scopolamine Induced Memory Deficit Reversed (1.25 mg/kg by body weight): 60%
c1ccn(Nc2ccncc2)c1 [N-(1H-Pyrrol-1-yl)-4-pyridinamine],,,% of Animals With Scopolamine Induced Memory Deficit Reversed (0.63 mg/kg by body weight): 21%
CCN(c1ccncc1)n1cccc1Cl.Cl [N-(2-Chloro-1H-pyrrol-1-yl)-N-ethyl-4-pyridinamine hydrochloride],33%,,
CN(c1ccncc1)n1cccc1.Cl [N-Methyl-N-(1H-pyrrol-1-yl)-4-pyridinamine hydrochloride],43%,,
"CC[C@@H]1C(=O)OC[C@@H]1Cc1cncn1C [Pilocarpine, reference compound]",,23%,
CC(O)c1cccn1N(C)c1ccncc1 (stereo not drawn) [α-methyl-1-[[N-(4-pyridinyl)-N-methyl]amino]-1H-pyrrole-2-methanol maleate],,19%,
